Source: patent US9809574B2, “Isoindoline or isoquinoline compounds, a process for their preparation and pharmaceutical compositions containing them” (LES LABORATOIRES SERVIER, priority 2013, dated 2017)
Structures can show the parent of a compound that is named as a salt.

What was measured:
Bcl-2 protein = Bcl-2 protein (histag-Bcl-2, UniProtKB P10415) (Homo sapiens (Human), UniProt P10415); assay: Inhibition of Bcl-2 by the fluorescence polarisation technique; format: binding; settings: fluorescence polarisation test; incubation for 2 hours; read-out: IC50 (nM) Bcl-2 FP
Source text: For partial inhibitors, the percentage fluorescence polarisation inhibition for a given concentration of the test compound is indicated.

[1] = system: RS4; 11 leukaemia cell line; assay: In vitro cytotoxicity, Microculture Tetrazolium Assay (MTT); format: cell-based; settings: Homo sapiens, 11 cells exposed for 48 hours
Experimental: The cytotoxicity studies were carried out on the RS4; 11 leukaemia cell line and on H146 small Cell Lung Carcinoma cell line. The cells are distributed onto microplates and exposed to the test compounds for 48 hours. The cell viability is then quantified by a colorimetric assay, the Microculture Tetrazolium Assay (Cancer Res., 1987, 47, 939-942).

Sequence of Bcl-2 protein (P10415 whole entry): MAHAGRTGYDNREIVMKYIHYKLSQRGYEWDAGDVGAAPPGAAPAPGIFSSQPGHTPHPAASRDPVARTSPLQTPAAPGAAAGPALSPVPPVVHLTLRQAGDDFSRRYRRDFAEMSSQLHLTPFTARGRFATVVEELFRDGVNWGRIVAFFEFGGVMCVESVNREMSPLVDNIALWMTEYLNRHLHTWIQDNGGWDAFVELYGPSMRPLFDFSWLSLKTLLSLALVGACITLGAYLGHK

Structure (SMILES)	IC50 (Bcl-2 protein) [nM]	IC50 [1] [nM]
Cc1c(C(=O)N(C)c2ccccc2)cc(-c2cc3c(cc2C(=O)N2Cc4ccccc4C[C@H]2C)CN(C(=O)Cc2ccccc2)CC3)n1C [Example 118, N,1,2-Trimethyl-5-{7-[(3R)-3-methyl-1,2,3,4-tetrahydroisoquinoline-2-carbonyl]-2-(2-phenylacetyl)-1,2,3,4-tetrahydroisoquinolin-6-yl}-N-phenyl-1H-pyrrole-3-carboxamide]	3.4	43
Cc1c(C(=O)N(C)c2ccc(O)cc2)cc(-c2cc3c(cc2C(=O)N2Cc4ccccc4C[C@H]2C)CN(C(=O)COc2ccccc2)C3)n1C [Example 103, N-(4-Hydroxyphenyl)-N,1,2-trimethyl-5-{6-[(3R)-3-methyl-1,2,3,4-tetrahydroisoquinoline-2-carbonyl]-2-(2-phenoxyacetyl)-2,3-dihydro-1H-isoindol-5-yl}-1H-pyrrole-3-carboxamide]	3.6	46
Cc1c(C(=O)N(C)c2ccccc2)cc(-c2cc3c(cc2C(=O)N2Cc4ccccc4C[C@H]2C)CN(C(=O)Oc2cnc4[nH]ccc4c2)CC3)n1C [Example 636, 1H-Pyrrolo[2,3-b]pyridin-5-yl 6-{1,5-dimethyl-4-[methyl(phenyl)carbamoyl]-1H-pyrrol-2-yl}-7-[(3R)-3-methyl-1,2,3,4-tetrahydroisoquinoline-2-carbonyl]-1,2,3,4-tetrahydroisoquinoline-2-carboxylate]	11	34
Cc1c(C(=O)N(C)c2ccc(O)cc2)cc(-c2cc3c(cc2C(=O)N2Cc4ccccc4C[C@H]2C)CN(C(=O)CC2CCCCC2)CC3)n1C [Example 795, 5-[2-(2-Cyclohexylacetyl)-7-[(3R)-3-methyl-1,2,3,4-tetrahydroisoquinoline-2-carbonyl]-1,2,3,4-tetrahydroisoquinolin-6-yl]-N-(4-hydroxyphenyl)-N,1,2-trimethyl-1H-pyrrole-3-carboxamide]	5.3	32
Cc1c(C(=O)N(C)c2ccccc2)cc(-c2cc3c(cc2C(=O)N2Cc4ccccc4C[C@H]2C)CN(C(=O)Oc2ccc4[nH]ccc4c2)CC3)n1C [Example 789, 1H-Indol-5-yl 6-{1,5-dimethyl-4-[methyl(phenyl)carbamoyl]-1H-pyrrol-2-yl}-7-[(3R)-3-methyl-1,2,3,4-tetrahydroisoquinoline-2-carbonyl]-1,2,3,4-tetrahydroisoquinoline-2-carboxylate]	8.9	14
Cc1c(C(=O)N(C)c2ccc(O)cc2)cc(-c2cc3c(cc2C(=O)N2Cc4ccccc4C[C@H]2CN2CCOCC2)CN(C(=O)Oc2ccc4ccccc4c2)CC3)n1C [Example 574, Naphthalen-2-yl 6-{4-[(4-hydroxyphenyl)(methyl)carbamoyl]-1,5-dimethyl-1H-pyrrol-2-yl}-7-[(3S)-3-(morpholin-4-ylmethyl)-1,2,3,4-tetrahydroisoquinoline-2-carbonyl]-1,2,3,4-tetrahydroisoquinoline-2-carboxylate]	8.8	11
Cc1c(C(=O)N(C)c2ccccc2)cc(-c2cc3c(cc2C(=O)N2Cc4ccccc4C[C@H]2C)CN(C(=O)Oc2cccc(N(C)CCN(C)C)c2)CC3)n1C [Example 446, 3-{[2-(Dimethylamino)ethyl](methyl)amino}phenyl 6-{1,5-dimethyl-4-[methyl(phenyl)carbamoyl]-1H-pyrrol-2-yl}-7-[(3R)-3-methyl-1,2,3,4-tetrahydroisoquinoline-2-carbonyl]-1,2,3,4-tetrahydroisoquinoline-2-carboxylate]	4.3	14
C[C@@H]1Cc2ccccc2CN1C(=O)c1cc2c(cc1-c1cc(C(=O)N(C)c3ccc(O)cc3)c3n1CCCC3)CCN(C(=O)CCc1ccc(NCCN(C)C)cc1)C2 [Example 138, 3-{2-[3-(4-{[2-(Dimethylamino)ethyl]amino}phenyl)propanoyl]-7-[(3R)-3-methyl-1,2,3,4-tetrahydroisoquinoline-2-carbonyl]-1,2,3,4-tetrahydroisoquinolin-6-yl}-N-(4-hydroxyphenyl)-N-methyl-5,6,7,8-tetrahydroindolizine-1-carboxamide]	12	114
CCCCN(CCCC)C(=O)c1cc(-c2cc3c(cc2C(=O)N2Cc4ccccc4C[C@H]2CN2CCOCC2)CN(C(=O)Cc2ccccc2)CC3)n(C)c1C [Example 165, N,N-Dibutyl-1,2-dimethyl-5-{7-[(3S)-3-(morpholin-4-ylmethyl)-1,2,3,4-tetrahydroisoquinoline-2-carbonyl]-2-(2-phenylacetyl)-1,2,3,4-tetrahydroisoquinolin-6-yl}-1H-pyrrole-3-carboxamide]	18	> 150
Cc1c(C(=O)N(C)c2ccc(O)cc2)cc(-c2cc3c(cc2C(=O)N2Cc4ccccc4C[C@H]2C)CN(C(=O)Oc2ccc(C#N)cc2)CC3)n1C [Example 147, 4-Cyanophenyl 6-{4-[(4-hydroxyphenyl)(methyl)carbamoyl]-1,5-dimethyl-1H-pyrrol-2-yl}-7-[(3R)-3-methyl-1,2,3,4-tetrahydroisoquinoline-2-carbonyl]-1,2,3,4-tetrahydroisoquinoline-2-carboxylate]	3.2	2.3
Cc1c(C(=O)N(C)c2ccccc2)cc(-c2cc3c(cc2C(=O)N2Cc4ccccc4C[C@H]2CN2CCOCC2)CN(C(=O)Oc2ccccc2)CC3)n1C [Example 115, Phenyl 6-{1,5-dimethyl-4-[methyl(phenyl)carbamoyl]-1H-pyrrol-2-yl}-7-[(3S)-3-(morpholin-4-ylmethyl)-1,2,3,4-tetrahydroisoquinoline-2-carbonyl]-1,2,3,4-tetrahydroisoquinoline-2-carboxylate]	3.4	24
CN(C(=O)c1cc(-c2cc3c(cc2C(=O)N2Cc4ccccc4C[C@H]2CN2CCOCC2)CN(C(=O)Oc2ccccc2)C3)n2c1CCCC2)c1ccc(O)cc1 [Example 16, Phenyl 5-{1-[(4-hydroxyphenyl)(methyl)carbamoyl]-5,6,7,8-tetrahydroindolizin-3-yl}-6-[(3S)-3-(morpholin-4-ylmethyl)-1,2,3,4-tetrahydroisoquinoline-2-carbonyl]-2,3-dihydro-1H-isoindole-2-carboxylate hydrochloride]	6	27
C[C@@H]1Cc2ccccc2CN1C(=O)c1cc2c(cc1-c1cc(C(=O)N(c3ccc(O)cc3)c3cnc4c(ccn4C)c3)c3n1CCCC3)CN(C(=O)COc1ccccc1)C2 [Example 158, N-(4-Hydroxyphenyl)-3-{6-[(3R)-3-methyl-1,2,3,4-tetrahydroisoquinoline-2-carbonyl]-2-(2-phenoxyacetyl)-2,3-dihydro-1H-isoindol-5-yl}-N-{1-methyl-1H-pyrrolo[2,3-b]pyridin-5-yl}-5,6,7,8-tetrahydroindolizine-1-carboxamide]	4.6	3.5

The next lines start with results.

IC50 (Bcl-2 protein) [nM]	Structure (SMILES)	IC50 [1] [nM]
5.6	CN(C(=O)c1cc(-c2cc3c(cc2C(=O)N2Cc4ccccc4C[C@H]2CN2CCOCC2)CN(C(=O)OCc2ccccc2)CC3)n2c1CCCC2)c1ccc(O)cc1 [Example 94, Benzyl 6-{1-[(4-hydroxyphenyl)(methyl)carbamoyl]-5,6,7,8-tetrahydroindolizin-3-yl}-7-[(3S)-3-(morpholin-4-ylmethyl)-1,2,3,4-tetrahydroisoquinoline-2-carbonyl]-1,2,3,4-tetrahydroisoquinoline-2-carboxylate]	19
4.9	C[C@@H]1Cc2ccccc2CN1C(=O)c1cc2c(cc1-c1cc(C(=O)N(C)c3ccc(O)cc3)c3n1CCCC3)CCN(C(=O)CCc1ccccc1)C2 [Example 37, N-(4-Hydroxyphenyl)-N-methyl-3-{7-[(3R)-3-methyl-1,2,3,4-tetrahydroisoquinoline-2-carbonyl]-2-(3-phenylpropanoyl)-1,2,3,4-tetrahydroisoquinolin-6-yl}-5,6,7,8-tetrahydroindolizine-1-carboxamide]	18
95	CN(C(=O)c1cc(-c2cc3c(cc2C(=O)N2Cc4ccccc4C[C@H]2CN2CCOCC2)CN(C(=O)OC(C)(C)C)C3)n2c1CCCC2)c1ccc(O)cc1 [Example 6, tert-Butyl 5-{1-[(4-hydroxyphenyl)(methyl)carbamoyl]-5,6,7,8-tetrahydroindolizin-3-yl}-6-[(3S)-3-(morpholin-4-ylmethyl)-1,2,3,4-tetrahydroisoquinoline-2-carbonyl]-2,3-dihydro-1H-isoindole-2-carboxylate]	> 1880
7.3	CN(C(=O)c1cc(-c2cc3c(cc2C(=O)N2Cc4ccccc4C[C@H]2CN2CCOCC2)CN(C(=O)Cc2ccccc2)C3)n2c1CCCC2)c1ccc(O)cc1 [Example 8, N-(4-Hydroxyphenyl)-N-methyl-3-{6-[(3S)-3-(morpholin-4-ylmethyl)-1,2,3,4-tetrahydroisoquinoline-2-carbonyl]-2-(2-phenylacetyl)-2,3-dihydro-1H-isoindol-5-yl}-5,6,7,8-tetrahydroindolizine-1-carboxamide; hydrochloride salt]	98
14	C[C@@H]1Cc2ccccc2CN1C(=O)c1cc2c(cc1-c1cc(C(=O)N(C)c3ccc(O)cc3)c3n1CCCC3)CCN(S(=O)(=O)c1ccccc1)C2 [Example 39, 3-[2-(Benzenesulfonyl)-7-[(3R)-3-methyl-1,2,3,4-tetrahydroisoquinoline-2-carbonyl]-1,2,3,4-tetrahydroisoquinolin-6-yl]-N-(4-hydroxyphenyl)-N-methyl-5,6,7,8-tetrahydroindolizine-1-carboxamide]	106
4	Cc1c(C(=O)N(C)c2ccc(O)cc2)cc(-c2cc3c(cc2C(=O)N2Cc4ccccc4C[C@H]2C)CN(C(=O)Cc2ccccc2)CC3)n1C [Example 75, N-(4-Hydroxyphenyl)-N,1,2-trimethyl-5-{7-[(3R)-3-methyl-1,2,3,4-tetrahydroisoquinoline-2-carbonyl]-2-(2-phenylacetyl)-1,2,3,4-tetrahydroisoquinolin-6-yl}-1H-pyrrole-3-carboxamide]	6.2
